Here are results for 20 molecules from patent publication US9012446B2, “Amino-oxazines and amino-dihydrothiazine compounds as beta-secretase modulators and methods of use” (Amgen Inc., priority 2010, dated 2015).

Read-outs that look alike come from different tables or passages of the source.

One experiment relates to Aβ40. Nature of the experiment: In vitro BACE cell-based assay (Aβ40 sandwich ELISA, cells stably expressing APP). The method, then:
In Vitro BACE Cell-Based Assay […] Cells stably expressing Amyloid Precursor Protein (APP) were plated at a density of 40K cells/well in 96 well plates (Costar). The cells were cultivated for 24 hours at 37° C. and 5% CO2 in DMEM supplemented with 10% FBS. The test compounds were then added to cells in 10-point dose response concentrations with the starting concentration being either 100 μM or 10 μM. The compounds were diluted from stock solutions in DMSO and the final DMSO concentration of the test compounds on cells was 0.1%. […] The IC50 of the compound was calculated from the percent of control or percent inhibition of Aβ40 as a function of the concentration of the test compound. The sandwich ELISA to detect Aβ40 was performed in 96 well microtiter plates, which were pre-treated with goat anti-rabbit IgG (Pierce). […] The optimal concentration for the pAb40 antibody was 3 μg/ml in Superblock/TBS (Pierce) that was supplemented with 0.05% Tween 20 (Sigma). […] Cellular supernatants were incubated with the capture antibody for 3 h at 4° C., followed by 3 wash steps in TBS-tween (0.05%). The detecting antibody incubation was for 2 h at 4° C., again followed by the wash steps as described previously. The final readout of the ELISA is Time-Resolved Fluorescence (counts per minute) using Delfia reagents Streptavidin-Europium and Enhancement solutions (Perkin Elmer) and the Victor 2 multilabel counter (Perkin Elmer).
For orientation: In an ELISA, binding on a coated surface is turned into a signal by an enzyme label.

A further experiment has as its target BACE (Homo sapiens, UniProt P56817). Nature of the experiment: In vitro enzymatic BACE FRET assay. It counts as biochemical. To be noted: average IC50, enzyme assay; read-out: BACE 1 FRET assay. Here is the method: In Vitro Enzymatic BACE FRET (Fluorescence Resonance Energy Transfer) Assay (Enzyme Assay Data in the Example Table I) The assay buffer used in this screen is 0.05 M acetate, pH 4.2, 10% DMSO final, 100 uM genapol (which is a nonionic detergent, below its Critical Micelle Concentration). The beta secretase enzyme (0.2 nM) is pre-incubated for one hour with inhibitors, typically in about 1 uL of DMSO according to a serial dilution, are added thereto. This assay is effectively started by the addition of FRET substrate (50 nM) and the combination is incubated for one hour. The FRET assay is terminated with by addition of Tris buffer, which raises the pH to neutrality, and the fluorescence is determined. The FRET substrate is a peptide with commercially available fluorophore and quencher, on opposite sides of the BACE cleavage site. Proteolytic cleavage of the FRET substrate releases quenching of fluorescence (excitation 488 nm and emission […]).

Setting [1] is: Homo sapiens, HEK293, average IC50, read-out: HEK cell assay.
[2] abbreviates: average IC50, read-out: HEK cell assay.
The mark [3] stands for this setting: Homo sapiens, HEK293, average IC50, cell assay, HEK cells.

BACE, sequence (P56817 46-501, species assumed): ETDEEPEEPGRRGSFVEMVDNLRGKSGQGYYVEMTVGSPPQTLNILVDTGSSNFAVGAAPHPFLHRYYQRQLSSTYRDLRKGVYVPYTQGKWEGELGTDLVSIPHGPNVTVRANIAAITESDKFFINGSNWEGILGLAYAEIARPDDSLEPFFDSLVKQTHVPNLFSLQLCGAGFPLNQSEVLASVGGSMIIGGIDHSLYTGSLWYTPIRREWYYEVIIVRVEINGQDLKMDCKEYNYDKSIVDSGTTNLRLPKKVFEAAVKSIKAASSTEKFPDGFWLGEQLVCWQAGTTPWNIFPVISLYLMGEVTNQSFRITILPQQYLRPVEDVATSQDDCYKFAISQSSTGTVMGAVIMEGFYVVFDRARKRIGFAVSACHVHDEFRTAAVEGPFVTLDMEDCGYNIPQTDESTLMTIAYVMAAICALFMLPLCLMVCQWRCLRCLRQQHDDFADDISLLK

With `NC1=N[C@]2(CCS1)c1cc(-c3cccnc3F)ccc1Oc1cnc(C3=CCCOC3)cc12` [compound 195], the IC50 was 1970 nM in the experiment with Aβ40 (setting [1]) and 922 nM on BACE.
As for `COc1cc(F)c2c(c1)[C@@]1(CCSC(N)=N1)c1cc(-c3cccnc3F)ccc1O2` (racemic) [compound 191], the values for the IC50 in the experiment with Aβ40 (setting [2]) and on BACE were 374 nM and 87.3 nM, respectively.
Regarding `CCOc1cc2c(cn1)Oc1ccc(-c3cncc(Cl)c3)cc1[C@@]21COCC(N)=N1` [compound 253], the figures for the IC50 with Aβ40 (setting [1]) and on BACE were 1.5 nM and 1 nM, respectively.
The like results for `NC1=N[C@]2(CCO1)c1cc(-c3cccnc3F)ccc1Oc1c(F)cc(N3CC[C@@H](F)C3)cc12` [compound 177] were, in that order, 2530 nM and 892 nM.
For the molecule `CC(C)(F)COc1cc(F)c2c(c1)[C@@]1(CCOC(N)=N1)c1cc(-c3cccnc3)ccc1O2` [compound 158], the results for the IC50 in the experiment on Aβ40 (setting [3]) and at BACE were 393 nM and 941 nM, respectively.
On to `NC1=N[C@@]2(COC1)c1cc(-c3cncc(F)c3)ccc1Oc1cnc(Cl)cc12` [compound 257], for which the results for the IC50 with Aβ40 (setting [1]) and on BACE were 42 nM and 32.8 nM, respectively.
Consider `NC1=N[C@@]2(COC1)c1cc(-c3cncc(F)c3)ccc1Oc1cnc(-c3cncc(F)c3)cc12` [compound 112], for which the IC50 turned out to be 1.5 nM in the experiment with Aβ40 (setting [3]) and 0.5 nM on BACE.
Turning to `CCOc1cc2c(cn1)Oc1ccc(-c3cccnc3F)cc1[C@@]21COCC(N)=N1` [compound 260], the figures for the IC50 with Aβ40 (setting [1]) and at BACE were 2.1 nM and 1.6 nM, respectively.
For the molecule `NC1=N[C@@]2(CCO1)c1cc(-c3cccnc3F)ccc1Oc1cnc(-c3cccnc3)cc12` [compound 148], the IC50 in the experiment with Aβ40 (setting [3]) was determined as 4.1 nM; at BACE it was 4.6 nM.
For `CC(C)(C)COc1cnc2c(c1)[C@]1(CCOC(N)=N1)c1cc(-c3cccnc3F)ccc1O2` [Example 62, (S)-7-(2-fluoropyridin-3-yl)-3-(neopentyloxy)-5′,6′-dihydrospiro[chromeno[2,3-b]pyridine-5,4′-[1,3]oxazin]-2′-amine], the IC50 with Aβ40 (setting [1]) amounted to 4.8 nM; at BACE, 2.5 nM.
The like results for `NC1=N[C@@]2(CCS1)c1cc(-c3cccnc3F)ccc1Oc1ncc(C3=CCCOC3)cc12` [compound 272] were, in that order, 11 nM and 4 nM.
Taken in the same sequence, the figures for `NC1=N[C@@]2(CCS1)c1cc(-c3cccnc3F)ccc1Oc1cnc(-c3ccnc(F)c3)cc12` [compound 188] were 11.1 nM and 2.6 nM.
Taken in the same sequence, the figures for `N#Cc1cccc(-c2ccc3c(c2)[C@@]2(CCOC(N)=N2)c2cc(-c4ccnc(F)c4)nc(F)c2O3)c1` [compound 225] were 3 nM and 0.7 nM.
On to `NC1=N[C@]2(CCO1)c1cc(-c3cccnc3F)ccc1Oc1c(F)cc(N3CCC(F)(F)CC3)cc12` [compound 162], for which the IC50 in the experiment with Aβ40 (setting [1]) was 3020 nM; on BACE, 958 nM.
Consider `NC1=N[C@@]2(COC1)c1cc(-c3cncc(F)c3)ccc1Oc1cnc(-c3ccnc(F)c3)cc12` [compound 113], for which the IC50 with Aβ40 (setting [3]) was 1 nM; at BACE, 0.5 nM.
Take `CC(C)(C)COc1cc2c(cn1)Oc1ccc(Br)cc1[C@@]21COCC(N)=N1` [compound 251]: the figures for the IC50 in the experiment on Aβ40 (setting [1]) and at BACE were 62.5 nM and 19.6 nM, respectively.
Taken in the same sequence, the figures for `NC1=N[C@]2(CCO1)c1cc(-c3cccnc3F)ccc1Oc1c(F)cc(C3=CCCOC3)cc12` [compound 172] were 1070 nM and 1190 nM.
With `NC1=N[C@@]2(CCO1)c1cc(-c3cncc(F)c3)ccc1Oc1cnc(-c3cncc(F)c3)cc12` [compound 142], the IC50 in the experiment with Aβ40 (setting [3]) turned out to be 4.2 nM; at BACE it was 6.2 nM.
On to `NC1=N[C@]2(CO[C@@H]1C1CCOCC1)c1cc(-c3cccnc3F)ccc1Oc1cnc(Cl)cc12` (racemic) [compound 207], for which the results for the IC50 with Aβ40 (setting [2]) and on BACE were 21.3 nM and 11.5 nM, respectively.
With `NC1=N[C@@]2(COC1)c1cc(-c3cnccc3F)ccc1Oc1cnc(-c3ccc(F)c(F)c3)cc12` [compound 117], the IC50 in the experiment on Aβ40 (setting [3]) worked out at 1.6 nM; at BACE, 0.3 nM.
